Assay results from patent publication US5773573A, “HIV peptides” (priority 1994, dated 1998).
Residues, ends and D or L forms follow the SMILES beside them.

Assay: White cell and T cell subset counts (CD4, CD8, NK) in HIV infected patient given HEP1
Format: in vivo, human
Details: patient three, oral HEP1 10 mg daily day 2-22
Experimental: The objective of this study was to determine in an HIV infected patient if the induction of immunological tolerance to HEP1 could reduce immune activation and HIV infection. The design of the first clinical experiment was to orally administer HEP1 to the patient in daily 10 mg doses (the lower end of the preferred dose range). This was then followed approximately three months later with a subcutaneous administration of HEP1 at a higher dose of 140 mg. To assess the therapeutic benefit of HEP1, the following disease progression markers were measured by taking blood samples before, during and after each trial and determining: HIV levels by a p24 antigen assay, HIV infectivity by a cellular TCID assay and immune activation by quantitating levels of various lymphocytes.
T cell subsets were measured by adding a whole blood sample to a 4.5 ml tube containing EDTA and staining with monoclonal antibodies to CD3, CD4 and CD8. The percentage of T cells in Peripheral Blood Lymphocytes were determined by flow-cytometric procedures. The numbers of CD4 and CD8 T cells were determined by obtaining total and differential white-cell counts and multiplying by the appropriate factor obtained on flow cytometry.
The following markers of HIV disease progression were assayed: p24Ag (the concentration of HIV p24 protein in picogram/ml in the blood), TCID (the infectivity of the HIV in the cells of blood sample measured by an in vitro cell culture assay in which a serial dilution of the sample was mixed with activated uninfected PBMC and the level of HIV infection determined by p24Ag assay), total white count (immune activation measured by the number of white cells per mm^3), CD4 (the number of CD4 positive cells per mm^3), CD8 (the number of CD8 positive cells per mm^3), NK (the number of Natural Killer cells per mm^3), Lymphocytes (the number of cells per mm^3), Monocytes (the number of cells per mm^3), and Granulocytes (the number of cells per mm^3). Normalised data was calculated by dividing each data point by the value of its data series on day 1 of the trail and multiplying by 100.

SMILES: CC(C)[C@H](NC(=O)[C@@H](NC(=O)[C@H](CCC(=O)O)NC(=O)[C@H](CCCNC(=N)N)NC(=O)[C@H](CCCNC(=N)N)NC(=O)[C@H](CCCCN)NC(=O)[C@H](CCCCN)NC(=O)[C@H](CCC(=O)O)NC(=O)[C@@H](N)[C@@H](C)O)[C@@H](C)O)C(=O)N[C@@H](CCC(=O)O)C(=O)N[C@@H](CCCNC(=N)N)C(=O)N[C@@H](CCC(=O)O)C(=O)N[C@@H](CCCCN)C(=O)N[C@@H](CCC(=O)O)C(=O)O [HEP1, NH2 ThrGluLysLysArgArgGluThrValGluArgGluLysGluCOOH] (H-TEKKRRETVEREKE-OH)
- % Granulocytes (day 1, before first dose): 76.1%
- % Granulocytes, normalised data (day 1 = 100) (day 1, before first dose): 100
- % Lymphocytes (day 1, before first dose): 17.8%
- % Lymphocytes, normalised data (day 1 = 100) (day 1, before first dose): 100
- % Monocytes (day 1, before first dose): 6.1%
- % Monocytes, normalised data (day 1 = 100) (day 1, before first dose): 100
- CD4 (day 1, before first dose): 80 cells per mm^3
- CD4, normalised data (day 1 = 100) (day 1, before first dose): 100
- CD8 (day 1, before first dose): 900 cells per mm^3
- CD8, normalised data (day 1 = 100) (day 1, before first dose): 100
- Granulocytes (day 1, before first dose): 6230 cells per mm^3
- Lymphocytes (day 1, before first dose): 1480 cells per mm^3
- Lymphocytes, normalised data (day 1 = 100) (day 1, before first dose): 100
- Monocytes (day 1, before first dose): 570 cells per mm^3
- Monocytes, normalised data (day 1 = 100) (day 1, before first dose): 100
- NK (day 1, before first dose): 30 cells per mm^3
- NK, normalised data (day 1 = 100) (day 1, before first dose): 100
- White count (day 1, before first dose): 8200 cells per mm^3
- White count, normalised data (day 1 = 100) (day 1, before first dose): 100
- % Granulocytes (day 7, during treatment): 81.4%
- % Granulocytes, normalised data (day 1 = 100) (day 7, during treatment): 107
- % Lymphocytes (day 7, during treatment): 15.5%
- % Lymphocytes, normalised data (day 1 = 100) (day 7, during treatment): 87
- % Monocytes (day 7, during treatment): 3.1%
- % Monocytes, normalised data (day 1 = 100) (day 7, during treatment): 51
- CD4 (day 7, during treatment): 80 cells per mm^3
- CD4, normalised data (day 1 = 100) (day 7, during treatment): 100
- CD8 (day 7, during treatment): 850 cells per mm^3
- CD8, normalised data (day 1 = 100) (day 7, during treatment): 94
- Granulocytes (day 7, during treatment): 6560 cells per mm^3
- Granulocytes, normalised data (day 1 = 100) (day 7, during treatment): 105
- Lymphocytes (day 7, during treatment): 1150 cells per mm^3
- Lymphocytes, normalised data (day 1 = 100) (day 7, during treatment): 78
- Monocytes (day 7, during treatment): 490 cells per mm^3
- Monocytes, normalised data (day 1 = 100) (day 7, during treatment): 86
- NK (day 7, during treatment): 30 cells per mm^3
- NK, normalised data (day 1 = 100) (day 7, during treatment): 100
- White count (day 7, during treatment): 8200 cells per mm^3
- White count, normalised data (day 1 = 100) (day 7, during treatment): 100
- % Granulocytes (day 14, during treatment): 76.8%
- % Granulocytes, normalised data (day 1 = 100) (day 14, during treatment): 101
- % Lymphocytes (day 14, during treatment): 16.8%
- % Lymphocytes, normalised data (day 1 = 100) (day 14, during treatment): 94
- % Monocytes (day 14, during treatment): 6.4%
- % Monocytes, normalised data (day 1 = 100) (day 14, during treatment): 105
- CD4 (day 14, during treatment): 90 cells per mm^3
- CD4, normalised data (day 1 = 100) (day 14, during treatment): 113
- CD8 (day 14, during treatment): 900 cells per mm^3
- CD8, normalised data (day 1 = 100) (day 14, during treatment): 100
- Granulocytes (day 14, during treatment): 5620 cells per mm^3
- Granulocytes, normalised data (day 1 = 100) (day 14, during treatment): 90
- Lymphocytes (day 14, during treatment): 1460 cells per mm^3
- Lymphocytes, normalised data (day 1 = 100) (day 14, during treatment): 99
- Monocytes (day 14, during treatment): 620 cells per mm^3
- Monocytes, normalised data (day 1 = 100) (day 14, during treatment): 109
- NK (day 14, during treatment): 40 cells per mm^3
- NK, normalised data (day 1 = 100) (day 14, during treatment): 133
- White count (day 14, during treatment): 7700 cells per mm^3
- White count, normalised data (day 1 = 100) (day 14, during treatment): 94
- % Granulocytes (day 21, during treatment): 76.2%
- % Granulocytes, normalised data (day 1 = 100) (day 21, during treatment): 100
- % Lymphocytes (day 21, during treatment): 18.6%
- % Lymphocytes, normalised data (day 1 = 100) (day 21, during treatment): 104
- % Monocytes (day 21, during treatment): 5.2%
- % Monocytes, normalised data (day 1 = 100) (day 21, during treatment): 85
- CD4 (day 21, during treatment): 80 cells per mm^3
- CD4, normalised data (day 1 = 100) (day 21, during treatment): 100
- CD8 (day 21, during treatment): 910 cells per mm^3
- CD8, normalised data (day 1 = 100) (day 21, during treatment): 101
- Granulocytes (day 21, during treatment): 5100 cells per mm^3
- Granulocytes, normalised data (day 1 = 100) (day 21, during treatment): 82
- Lymphocytes (day 21, during treatment): 1160 cells per mm^3
- Lymphocytes, normalised data (day 1 = 100) (day 21, during treatment): 78
- Monocytes (day 21, during treatment): 540 cells per mm^3
- Monocytes, normalised data (day 1 = 100) (day 21, during treatment): 95
- NK (day 21, during treatment): 40 cells per mm^3
- NK, normalised data (day 1 = 100) (day 21, during treatment): 133
- White count (day 21, during treatment): 6800 cells per mm^3
- White count, normalised data (day 1 = 100) (day 21, during treatment): 83
- % Granulocytes (day 28, after treatment): 74.5%
- % Granulocytes, normalised data (day 1 = 100) (day 28, after treatment): 98
- % Lymphocytes (day 28, after treatment): 20%
- % Lymphocytes, normalised data (day 1 = 100) (day 28, after treatment): 112
- % Monocytes (day 28, after treatment): 5.5%
- % Monocytes, normalised data (day 1 = 100) (day 28, after treatment): 90
- CD4 (day 28, after treatment): 80 cells per mm^3
- CD4, normalised data (day 1 = 100) (day 28, after treatment): 100
- CD8 (day 28, after treatment): 730 cells per mm^3
- CD8, normalised data (day 1 = 100) (day 28, after treatment): 81
- Granulocytes (day 28, after treatment): 4020 cells per mm^3
- Granulocytes, normalised data (day 1 = 100) (day 28, after treatment): 65
- Lymphocytes (day 28, after treatment): 1050 cells per mm^3
- Lymphocytes, normalised data (day 1 = 100) (day 28, after treatment): 71
- Monocytes (day 28, after treatment): 440 cells per mm^3
- Monocytes, normalised data (day 1 = 100) (day 28, after treatment): 77
- NK (day 28, after treatment): 20 cells per mm^3
- NK, normalised data (day 1 = 100) (day 28, after treatment): 67
- White count (day 28, after treatment): 5500 cells per mm^3
- White count, normalised data (day 1 = 100) (day 28, after treatment): 67
- % Granulocytes (day-69, before treatment): 80.4%
- % Granulocytes, normalised data (day 1 = 100) (day-69, before treatment): 106
- % Lymphocytes (day-69, before treatment): 15.4%
- % Lymphocytes, normalised data (day 1 = 100) (day-69, before treatment): 87
- % Monocytes (day-69, before treatment): 4.2%
- % Monocytes, normalised data (day 1 = 100) (day-69, before treatment): 96
- CD4 (day-69, before treatment): 90 cells per mm^3
- CD4, normalised data (day 1 = 100) (day-69, before treatment): 113
- CD8 (day-69, before treatment): 850 cells per mm^3
- CD8, normalised data (day 1 = 100) (day-69, before treatment): 94
- Granulocytes (day-69, before treatment): 6000 cells per mm^3
- Granulocytes, normalised data (day 1 = 100) (day-69, before treatment): 96
- Lymphocytes (day-69, before treatment): 1260 cells per mm^3
- Lymphocytes, normalised data (day 1 = 100) (day-69, before treatment): 85
- Monocytes (day-69, before treatment): 630 cells per mm^3
- Monocytes, normalised data (day 1 = 100) (day-69, before treatment): 111
- NK (day-69, before treatment): 20 cells per mm^3
